Measured values reported in patent publication US11865176B2, “Compositions and methods of modulating anti-tumor immunity” (Dana-Farber Cancer Institute, Inc., priority 2016, dated 2024).

Key:
MC38 = MC38 syngeneic colon adenocarcinoma model; assay type: in vivo, mouse
Protocol: For syngeneic models, MC38 and CT26 cells were injected into 6-8 week C57BL/6 or Balb/c female mice subcutaneously, respectively. Vehicle control, CDK4/6 inhibitors (trilaciclib or palbociclib) were treated alone or together with PD-1 antibody starting at the indicated time point, using an intermittent dosing schedule of 3 days on, 4 days off until experimental endpoint. PD-1 antibody was administered 3 times a week (Monday, Wednesday and Friday) at 200 μg/mouse through I.P. injection.

[1] = test system: primary human CD4+ T cells; experiment: IL2 ELISA, primary human CD4+ T cells; assay type: cell-based; conditions: α-CD3/CD28 and recombinant PD-L1 or control IgG; 100 nM (FIG. 1C)
Protocol: PD-1-overexpressing Jurkat cells as previously published (23) were stimulated with Dynabeads conjugated to α-CD3 (UCHT1), α-CD28 (28.2), and α-PD-1 (clone EH12 from Gordon Freeman) or control IgG at a 4:1 bead:cell ratio in the presence of 1 μM CDK4/6 inhibitor for 18 h. For primary human T cells, normal donor human blood was obtained through DFCI IRB Protocol 04-430. PBMC were isolated using a Ficoll-Paque density gradient, and purified populations of CD4+ T lymphocytes were obtained through a negative magnetic selection kit according to manufacturer's instructions (Miltenyi). […] IL-2 levels in the supernatant were analyzed by AlphaLISA (Perkin Elmers) according to the manufacturer's protocol.

total splenocytes = experiment: IFNγ production (ELISA) by splenocytes of mice treated in vivo; design: species or system mouse; conditions: tumor-bearing mice, 100 mg/kg IP
Protocol: FIG. 11. Tumor antigen experienced T cells are more sensitive to CDK4/6 inhibition. A. Naive C57BL/6 mice were treated with trilaciclib (100 mg/kg, IP) or vehicle for three days. Two and seven days after the final treatment, splenocytes were isolated and stimulated with α-CD3/CD28 antibodies for 72 hours to measure IFNγ production by ELISA. B. C57BL/6 mice were implanted with B16F10 tumor cells. Seven days post implantation mice were treated with trilaciclib (100 mg/kg, IP) or vehicle for 5 days. Five days post final treatment splenocytes were isolated and stimulated with α-CD3/CD28 antibodies for IFNγ production by ELISA. C. IL-2 production from Tconv (CD4^+CD25^−) cells after trilaciclib treatment. Tconv cells were isolated from either naive or tumor bearing (TMB) mice and treated with trilaciclib at indicated concentrations, in the presence of CD3 and CD28 antibodies. IL-2 production was determined 3 days after the treatment as percentage. (n=3) IFNγ production in CD8^+ T cells alone from naive or TMB mice after treatment with trilaciclib, as shown by percentage (D) or fold change (E). (n=3) F. Increased IFNγ production in CD8+ T cells by trilaciclib in the presence of Tregs. […] IFNγ production was determined 3 days after the treatment as shown as percentage. […]

[2] = test system: tumor infiltrating immune cells; experiment: FACS analysis of lung tumor immune infiltrates, KP GEMM; assay type: in vivo, mouse
Source text: All animal studies were reviewed and approved by the Institutional Animal Care and Use Committee (IACUC) at the Dana-Farber Cancer Institute. The genetically engineered mouse model (GEMM) harboring a conditional activating mutation of endogenous Kras (Kras^LSL-G12D/+) crossed with p53 conditional knockout Trp53^fl/fl has been previously described (36). CRE recombinase was induced through intranasal inhalation of […] adeno-Cre (University of Iowa adenoviral core).
For drug treatment studies in GEMM models, mice were evaluated by MRI imaging to quantify lung tumor burden before and after drug treatment. Mice were treated with either vehicle, or 100 mg/kg trilaciclib or 100 mg/kg palbociclib daily by oral gavage.
Mice were sacrificed, and lungs were perfused using sterile PBS through heart perfusion from the left ventricle after BAL fluid collection. The whole lung was minced into small pieces and digested in collagenase D (Sigma) and Dnase I (Sigma) in Hank's Balanced Salt Solution (HBSS) at 37° C. for 30 min. […] Live cells were determined by LIVE/DEAD® fixable aqua dead cell stain kit (Molecular Probes). The cell pellets were re-suspended in PBS with 2% FBS for Fluorescence-activated cell sorting (FACS) analysis. […] Cells were imaged on BD LSRFortessa (BD Biosciences) and analyzed using FlowJo software (Tree Star).

[3] = test system: patient-derived organotypic tumor spheroids (PDOTS); experiment: Cytokine profiling of patient-derived organotypic tumor spheroids (PDOTS) in 3D microfluidic culture; assay type: cell-based, human; conditions: 100 nM; day 1 and day 3
Protocol: Experiments were performed as described (28). Briefly, fresh tumor specimens from human patients were received in media (DMEM) on ice and minced in 10 cm dishes (on ice) in a sterile field. S2 fractions (40-100 μm) were used for ex vivo culture as previously described (28). An aliquot of the S2 fraction was pelleted and re-suspended in type I rat-tail collagen (Corning, Corning, NY) and the spheroid-collagen mixture was then injected into the center gel region of the 3D microfluidic culture device. After 30 minutes at 37° C., collagen hydrogels containing PDOTS/MDOTS were hydrated with media with indicated treatments. MDOTS were treated with IgG isotype control (10 μg/mL, clone 2A3) or rat-α-mouse anti-PD-1 (10 μg/ml, clone RMP1-14, BioXCell). […]
Mouse lung broncho alveolar lavage (BAL) was performed by intracheal injection of 2 ml of sterile PBS followed by collection by aspiration. Cytokines were measured using 19-plex mouse magnetic Luminex kit (R&D systems), Mouse Cytokine 23-plex Assay (Bio-Rad) or Human Cytokine 40-plex Assay (Bio-Rad) and measured on Bio-Plex 200 system (Bio-Rad). […] Fold changes relative to the control were calculated and plotted as log 2FC. Lower and upper limits of quantitation (LLOQ/ULOQ) were derived from standard curves for cytokines above or below detection. […]

CDK4/6 = experiment: Kinome profiling (KINOMEscan), selectivity; assay type: binding; conditions: compared with abemaciclib
Protocol: Palbociclib and abemaciclib were profiled by DiscoveRx using KINOMEscan (55). Briefly, the two compounds were tested at 100 nM and 1000 nM. Targeted kinases were visualized using the TREEspot™ compound profile visualization tool. Z'LYTE™ kinase assays were conducted for GSK3α and GSK3β at Life Technologies using Km ATP concentrations.

For `CN1CCN(c2ccc(Nc3ncc4cc5n(c4n3)C3(CCCCC3)CNC5=O)nc2)CC1` [trilaciclib], the “increase in CD4+ IL-2 production” value (MC38; TILs, trilaciclib added to PD-1 blockade, day 17) was roughly 2 fold, the tumor growth (MC38; intermittent trilaciclib (100 mg/kg, 3 days on, 4 days off) added to PD-1 blockade) was “nearly eliminated tumor growth” and the “increase in levels of IFNγ in CD8+ TILs” value (MC38; trilaciclib added to PD-1 blockade, day 17) was roughly 10 fold. For the same compound, the IL-2 secretion [1] was “enhanced IL-2 secretion”, the “IFNγ secretion of total splenocytes” value (total splenocytes) was “increased IFNγ secretion” and the “infiltration of CD4+ T cells and, to a lesser degree, CD8+ cells into lung tumors” value ([2]; KP mice, 100 mg/kg daily for 7 days) was “increased infiltration”. For the same compound, the “levels of PD-1 and CTLA-4 in CD4+ and CD8+ T cells” value ([2]; after treatment, to different extents) was “reduced”, the “levels of Th1 cytokines (CXCL9, CXCL10, IFNγ, IL-16, CXCL16)” value [3] was “increased levels of Th1 cytokines” and the “selectivity for CDK4/6” value (CDK4/6) was “significantly more selective for CDK4/6”.
